System: LL2 cells
Experiment: qRTPCR of IFN related genes in Lewis lung carcinoma (LL2) cells in vitro (Example 4)
Format: cell-based, mouse
Conditions: Doxorubicin 50 nM, 48 hours
Procedure: 4T1 cells (ATCC, CRL-2539) were cultured in RPMI-1640 (Sigma, Cat. #R8758) supplemented with 10% fetal bovine serum (FBS), L-glutamine (4 mM), streptomycin (5 μg/ml) and penicillin (5 U/ml). […] Lewis lung carcinoma cells LL/2 (LLC1) (ATCC, CRL-1642™) were cultured in Dulbecco's Modified Eagle's Medium ATCC® 30-2002™ (4 mM L-glutamine, 4500 mg/L glucose, 1 mM sodium pyruvate, and 1500 mg/L sodium bicarbonate).
RNA was extracted from snap frozen tumors using the RNEasy Microarray Tissue Mini kit from Qiagen following the manufacturer's instructions. As tumors contained Doxorubicin and powderizing them could expose personnel to harmful substances, the RNA was extracted in a closed system using the GentleMACS dissociator and M Tubes. Purity and concentration of RNA was measured using Nanodrop. RT^2 Profiler™ PCR Array. cDNA was synthesized from RNA using the RT^2 First Strand kit (Qiagen) according to the manufacturer's instructions. cDNA was mixed with RT^2 SYBR Green Mastermix (Qiagen) and loaded into RT^2 Profiler™ PCR Array Mouse Type I Interferon Response or RT^2 Profiler™ PCR Array Mouse Epithelial to Mesenchymal Transition (EMT), analyzing the expression of the genes listed in Table 17. The plates were analyzed using Light Cycler 480 (Roche) and data were analyzed using the Qiagen Data Analysis Centre and Graph Pad (Prism).
Chemotherapeutic agents commonly used to treat lung cancer patients were evaluated for effects on the IFN response. Cisplatin, navelbine and docetaxel were tested in vitro in combination with bemcentinib.
The IC50 of the different drugs were calculated by resazurin viability assay. […] The cells were treated for 48 hours.

COc1cccc2c1C(=O)c1c(O)c3c(c(O)c1C2=O)C[C@@](O)(C(=O)CO)C[C@@H]3O[C@H]1C[C@H](N)[C@H](O)[C@H](C)O1 [Doxorubicin, doxorubicin]
ISG significantly upregulated compared to control (number): limited IFN response

Source: US20230372337A1, “Combination Therapy Comprising an AXL Inhibitor” (BERGENBIO ASA, priority 2020, published 2023)
